Like-named read-outs stand apart in the source and are kept apart here.
Assays:
AChE (electric eel) = AChE (electric eel) (Electrophorus electricus, UniProt O42275); test: Ellman assay, 96-well, […] nm; format: biochemical
BuChE (equine serum) = target: T1, BuChE (equine serum) (Equus caballus, UniProt P81908); test: Ellman assay, 96-well, […] nm; format: biochemical
T1 construct: gene BCHE
T1 sequence (P81908 whole entry): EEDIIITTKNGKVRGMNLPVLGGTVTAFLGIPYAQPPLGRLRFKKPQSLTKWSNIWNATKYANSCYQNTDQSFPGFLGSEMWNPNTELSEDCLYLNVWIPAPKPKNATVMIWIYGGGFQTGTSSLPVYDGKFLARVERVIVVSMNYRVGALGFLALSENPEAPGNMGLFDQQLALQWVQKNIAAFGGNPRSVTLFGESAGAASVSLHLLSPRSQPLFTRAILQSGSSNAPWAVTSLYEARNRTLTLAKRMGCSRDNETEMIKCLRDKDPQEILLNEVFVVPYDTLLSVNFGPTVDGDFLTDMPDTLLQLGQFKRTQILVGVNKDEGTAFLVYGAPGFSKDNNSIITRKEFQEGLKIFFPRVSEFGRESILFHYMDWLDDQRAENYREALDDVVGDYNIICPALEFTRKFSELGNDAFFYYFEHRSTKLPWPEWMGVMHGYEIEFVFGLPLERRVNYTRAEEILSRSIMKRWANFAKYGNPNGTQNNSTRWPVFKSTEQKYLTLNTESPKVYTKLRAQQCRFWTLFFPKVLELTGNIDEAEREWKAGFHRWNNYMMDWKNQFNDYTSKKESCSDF

AChE (electric eel), sequence (O42275 24-633): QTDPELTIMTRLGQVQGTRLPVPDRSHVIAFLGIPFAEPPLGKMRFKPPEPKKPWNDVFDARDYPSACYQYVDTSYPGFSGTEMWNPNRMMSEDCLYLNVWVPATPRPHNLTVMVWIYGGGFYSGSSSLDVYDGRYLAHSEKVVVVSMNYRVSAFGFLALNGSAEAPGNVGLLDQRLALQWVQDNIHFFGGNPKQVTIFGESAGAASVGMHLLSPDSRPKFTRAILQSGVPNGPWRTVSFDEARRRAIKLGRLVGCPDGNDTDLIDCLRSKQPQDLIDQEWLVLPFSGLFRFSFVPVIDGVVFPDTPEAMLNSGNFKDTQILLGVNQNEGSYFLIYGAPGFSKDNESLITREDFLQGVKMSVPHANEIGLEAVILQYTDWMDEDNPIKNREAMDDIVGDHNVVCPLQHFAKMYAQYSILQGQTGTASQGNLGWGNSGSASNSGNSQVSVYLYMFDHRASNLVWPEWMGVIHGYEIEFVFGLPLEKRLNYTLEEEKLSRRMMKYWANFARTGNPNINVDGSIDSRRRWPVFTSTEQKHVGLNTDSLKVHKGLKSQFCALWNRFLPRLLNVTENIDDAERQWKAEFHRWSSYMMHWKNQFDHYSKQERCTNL

CCOC(=O)Nc1ccc(C(=O)OCC(O)CN(C)C)cc1 (stereo not drawn) [5b, (3-{4-[(ethoxycarbonyl)amino]benzoyloxy}-2-hydroxypropyl)dimethylammonium chloride]
IC50 (AChE (electric eel)): > 100 µM | IC50 (BuChE (equine serum)): > 100 µM

CC[N+](C)(C)CC(O)COC(=O)c1ccc(NC(=O)OC)cc1 (stereo not drawn) [6b, Ethyl(2-hydroxy-3-{4-[(methoxycarbonyl)amino]benzoyloxy}propyl)dimethylammonium iodide]
IC50 (AChE (electric eel); read-out: AChE IC50): 100 µM | IC50 (BuChE (equine serum)): > 100 µM

CCCOC(=O)Nc1ccc(C(=O)OCC(O)C[N+](C)(C)C)cc1 (stereo not drawn) [6g, (2-Hydroxy-3-{4-[(propoxycarbonyl)amino]benzoyloxy}propyl)trimethylammonium iodide]
IC50 (AChE (electric eel); read-out: AChE IC50): > 100 µM | IC50 (BuChE (equine serum)): > 100 µM

CCCOC(=O)Nc1ccc(C(=O)OCC(O)C[N+](C)(CC)CC)cc1 (stereo not drawn) [6h, Diethyl (2-hydroxy-3-{4-[(propoxycarbonyl)amino]benzoyloxy}propyl)methylammonium iodide]
IC50 (AChE (electric eel)): 58 µM | IC50 (BuChE (equine serum)): > 100 µM

CCOC(=O)Nc1ccc(C(=O)OCC(O)C[N+](C)(C)CC)cc1 (stereo not drawn) [6e, (3-{4-[(Ethoxycarbonyl)amino]benzoyloxy}-2-hydroxypropyl)(ethyl)dimethylammonium iodide]
IC50 (AChE (electric eel)): > 100 µM | IC50 (BuChE (equine serum)): > 100 µM

CCOC(=O)Nc1ccc(C(=O)OCC(O)C[N+](C)(C)C)cc1 (stereo not drawn) [6d, (3-{4-[(Ethoxycarbonyl)amino]benzoyloxy}-2-hydroxypropyl)trimethylammonium iodide]
IC50 (AChE (electric eel); read-out: AChE IC50): > 100 µM | IC50 (BuChE (equine serum)): > 100 µM

CCN(CC)CC(O)COC(=O)c1ccc(NC(=O)OC)cc1 (stereo not drawn) [5e, Diethyl-(2-hydroxy-3-{4-[(methoxycarbonyl)amino]benzoyloxy}propyl)ammonium chloride]
IC50 (AChE (electric eel); read-out: AChE IC50): > 100 µM | IC50 (BuChE (equine serum)): > 100 µM

COC(=O)Nc1ccc(C(=O)OCC(O)C[N+](C)(C)C)cc1 (stereo not drawn) [6a, (2-Hydroxy-3-{4-[(methoxycarbonyl)amino]benzoyloxy}propyl)trimethylammonium iodide]
IC50 (AChE (electric eel)): > 100 µM | IC50 (BuChE (equine serum)): > 100 µM

COC(=O)Nc1ccc(C(=O)OCC(O)CN(C)C)cc1 (stereo not drawn) [5a, (2-Hydroxy-3-{4-[(methoxycarbonyl)amino]benzoyloxy}propyl)dimethylammonium chloride]
IC50 (AChE (electric eel)): > 100 µM | IC50 (BuChE (equine serum)): > 100 µM

CCCOC(=O)Nc1ccc(C(=O)OCC(O)CN(C)C)cc1 (stereo not drawn) [5c, (2-Hydroxy-3-{4-[(propoxycarbonyl)amino]benzoyloxy}propyl)dimethylammonium chloride]
IC50 (AChE (electric eel); read-out: AChE IC50): > 100 µM | IC50 (BuChE (equine serum)): > 100 µM

COC(=O)Nc1ccc(C(=O)OCC(O)C[N+](C)(C)C(C)C)cc1 (stereo not drawn) [6c, (2-Hydroxy-3-{4-[(methoxycarbonyl)amino]benzoyloxy}propyl)dimethyl(propan-2-yl)ammonium iodide]
IC50 (AChE (electric eel)): > 100 µM | IC50 (BuChE (equine serum)): > 100 µM

CCOC(=O)Nc1ccc(C(=O)OCC(O)CN(CC)CC)cc1 (stereo not drawn) [5f, (3-{4-[(Ethoxycarbonyl)amino]benzoyloxy}-2-hydroxypropyl)diethylammonium chloride]
IC50 (AChE (electric eel)): > 100 µM | IC50 (BuChE (equine serum)): > 100 µM

CCOC(=O)Nc1ccc(C(=O)OCC(O)C[N+](C)(CC)CC)cc1 (stereo not drawn) [6f, (3-{4-[(Ethoxycarbonyl)amino]benzoyloxy}-2-hydroxypropyl)diethylmethylammonium iodide]
IC50 (AChE (electric eel); read-out: AChE IC50): 56 µM | IC50 (BuChE (equine serum)): > 100 µM

CCCCOC(=O)Nc1ccc(C(=O)OCC(O)CN(C)C)cc1 (stereo not drawn) [5d, (3-{4-[(Butoxycarbonyl)amino]benzoyloxy}-2-hydroxypropyl)dimethylammonium chloride]
IC50 (AChE (electric eel); read-out: AChE IC50): > 100 µM | IC50 (BuChE (equine serum)): > 100 µM

CCCCOC(=O)Nc1ccc(C(=O)OCC(O)C[N+](C)(C)C)cc1 (stereo not drawn) [6i, (3-{4-[(Butoxycarbonyl)amino]benzoyloxy}-2-hydroxypropyl)trimethylammonium iodide]
IC50 (AChE (electric eel)): > 100 µM | IC50 (BuChE (equine serum)): > 100 µM

Source: publication PMC6149889, “Synthesis, Analysis, Cholinesterase-Inhibiting Activity and Molecular Modelling Studies of 3-(Dialkylamino)-2-hydroxypropyl 4-[(Alkoxy-carbonyl)amino]benzoates and Their Quaternary Ammonium Salts” (Molecules : A Journal of Synthetic Chemistry and Natural …, 2017)
